The data set concerns BV2 microglial cells.

The record followed here is paper PMC4697443 (Bioorganic & medicinal chemistry, 2015).

Marks after values point to notes of the source that are not given here.

In the case of “3-Chloro-N-(1-methyl-1H-benzo[d]imidazol-2-yl)benzamide [Compound 7]”, the Viability is listed as 1000^d μM.
